Results taken from US6294568A, “5-arylpyrrole derivatives” (priority 1997, dated 2001).

System: CaCo-2 cells
Test: Apoptosis Induction Test in CaCo-2 Cells
Assay type: cell-based
Settings: 24 hours, propidium iodide staining, fluorescence microscope
Procedure: CaCo-2 cells were adjusted in 10% FBS/DMEM/NEAA to 1.0×10^5 cells/ml concentration and then pipetted into a 6 well plate in an amount of 3 ml/well. The cells were cultured under the conditions of at 37° C. in 5% CO2 atmosphere for 24 hours to allow the cell adhesion. Only the medium solution (0.1% ethanol) was exchanged in the control group, and the compound of the invention (Preparation Example 1) group was transferred to culture mediums containing the compound adjusted to each of the specified concentrations, then the cells were cultured under the condition of at 37° C. in 5% CO2 atmosphere for 24 hours. Then the culture medium and the adhesive cells separated of the adhesion by trypsin were collected and centrifuged at 1000 rpm for 5 minutes to remove the supernatant. The cells were washed with PBS(-) and then 20 μl of 90% ethanol/0.5% triton×100/10mM EDTA/10mM Tris-HCl (pH7.4) and 5 μl of propidium iodide (1 μg/ml) were added thereto to stain the nucleuses. A drop of the stained cell solution was placed on a preparation glass to be examined by a fluorescence microscope at B range.

## Cc1cc(-c2ccc(F)cc2)c(-c2ccc(S(C)(=O)=O)cc2)[nH]1 [Preparation Example 1, 4-(4-fluorophenyl)-2-methyl-5-(4-methylsulfonylphenyl)-1H-pyrrole]
  cell apoptosis: cell apoptosis caused by the compound of the invention was observed
